How the values were obtained:
Type in all cases: biochemical
[1] = biological target: T1, bovine α-chymotrypsin (CYT) (Bos taurus, UniProt P00766); experiment: Test 2: Measurement of inhibitory activity against CYT; details: MeO-Suc-Ala-Ala-Pro-Phe-pNA substrate, pH 8.0, same procedures as Test 1
T1 construct: purchased Sigma Co. Ltd., St. Louise, MO
Experimental: (§1) In order to investigate the serine protease inhibiting activity of the 4H-3,1-benzoxazin-4-one derivatives according to the present invention, human leukocyte elastase (HLE), bovine α-chymotrypsin (CYT), and human cathepsin G (HCG) were used in accordance with the following methods.
(§2) Note that the 4H-3,1-benzoxazin-4-one derivative of the present invention was dissolved in dimethylsulfoxide (DMSO) to adjust to the concentration to 1 mg/ml. This solution was serially diluted with DMSO, and twice the volume of measurement buffer was added to these DMSO solutions to provide the inhibitor solution. Test 1: Measurement of inhibitory activity against HLE
(§3) The enzyme solution, the substrate solution, and the inhibitor solution were pre-incubated at 37° C. for 10 minutes. The enzyme solution (140 μl) and the inhibitor solution (30 μl) were mixed in a well of a 96-well microtiter plate (Nunc Co. Ltd., Roskilde, Denmark), and the substrate solutions (30 μl) were added 10 minutes after the mixing, thereby starting the enzyme reaction. Hydrolysis of the substrate was monitored by the measurement of absorbance at 405 nm using a micro plate photometer (Corona Co. Ltd, Tokyo, Japan). The inhibitor concentration at which the activity of HLE was inhibited by 50% (IC50) was calculated from the substrate hydrolysis rate in the steady state.
Test 2: Measurement of inhibitory activity against CYT.
0.2M tris-hydrochloride buffer (pH=8.0)
CYT (Sigma Co. Ltd., St. Louise, MO) was adjusted to a concentration of 190 nM with the measurement buffer. This solution was used as the enzyme solution.
Methoxysuccinyl-L-alanyl-L-alanyl-L-prolyl-L-phenylalanyl-paranitroanilide (Funakoshi) as the enzyme substrate was dissolved and adjusted to a concentration of 5 mM with DMSO. This DMSO solution was diluted with twice the volume of measurement buffer, and then used as the substrate solution.
IC50 against CYT was determined in the same procedures detailed in Test 1.

[2] = biological target: T2, human leukocyte elastase (HLE) (Homo sapiens, UniProt P08246); experiment: Test 1: Measurement of inhibitory activity against HLE; details: MeO-Suc-Ala-Ala-Pro-Val-pNA substrate, pH 8.6, 37° C., 10 min after mixing enzyme and inhibitor, steady state rate
T2 construct: HLE was purified according to the method described by A. J. Barrett; from tissue; host or cells: purified from natural human material by Barrett's method (Methods in Enzymology 80, 581-588, 1981)
T2 sequence (P08246 30-247 limits assumed): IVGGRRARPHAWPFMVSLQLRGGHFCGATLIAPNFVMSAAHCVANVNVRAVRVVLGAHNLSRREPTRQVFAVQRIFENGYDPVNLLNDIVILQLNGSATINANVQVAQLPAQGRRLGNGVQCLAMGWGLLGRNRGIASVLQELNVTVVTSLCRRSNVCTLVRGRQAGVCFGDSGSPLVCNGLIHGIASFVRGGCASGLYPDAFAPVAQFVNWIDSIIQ
Experimental: as §1, §2
0.2M tris-hydrochloride buffer (pH=8.6)
HLE was purified according to the method described by A. J. Barrett ("Methods in Enzymology", Vol. 80, pp. 581 to 588, 1981) and adjusted to a concentration of 190 nM with measurement buffer. This solution was used as the enzyme solution.
Methoxysuccinyl-L-alanyl-L-alanyl-L-prolyl-L-valyl-paranitroanilide (Funakoshi Co. Ltd., Tokyo, Japan) as enzyme substrate was dissolved and adjusted to a concentration of 5 mM with DMSO. This DMSO solution was diluted with twice the volume of measurement buffer, and then used as the substrate solution.
as §3

[3] = biological target: T3, human cathepsin G (HCG) (Homo sapiens, UniProt P08311); experiment: Test 3: Measurement of inhibitory activity against HCG; details: MeO-Suc-Ala-Ala-Pro-Phe-pNA substrate, pH 7.5, same procedure as Test 1
T3 construct: purchased Cosmo Bio Co. Ltd., Tokyo, Japan
T3 sequence (P08311 21-244 limits assumed): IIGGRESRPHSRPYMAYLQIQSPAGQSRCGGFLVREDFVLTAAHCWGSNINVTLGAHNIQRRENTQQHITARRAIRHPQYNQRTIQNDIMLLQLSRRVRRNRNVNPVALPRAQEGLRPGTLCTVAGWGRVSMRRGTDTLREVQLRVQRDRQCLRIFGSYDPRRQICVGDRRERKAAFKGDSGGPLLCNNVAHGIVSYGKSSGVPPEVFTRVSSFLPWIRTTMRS
Experimental: as §1, §2, §3
Test 3: Measurement of inhibitory activity against HCG.
0.2M tris-hydrochloride buffer (pH=7.5)
HCG (Cosmo Bio Co. Ltd., Tokyo, Japan) was adjusted to a concentration of 190 nM with the measurement buffer. This solution was used as the enzyme solution.
Methoxysuccinyl-L-alanyl-L-alanyl-L-prolyl-L-phenylalanyl-paranitroanilide (Funakoshi) as the enzyme substrate was dissolved and adjusted to a concentration of […] with DMSO. This DMSO solution was diluted with twice the volume of the measurement buffer, and then used as the substrate solution.
IC50 against HCG was determined in the same procedure detailed in Test 1.

SMILES	IC50 [1]	IC50 [2]	IC50 [3]
Cc1cccc2nc([C@@H](NC(=O)[C@@H]3CCCN3C(=O)CCc3ccccc3)C(C)C)oc(=O)c12 [Example 4, (1'S)-5-methyl-2-{2'-methyl-1'-[N-(3-phenylpropionyl)-L-prolyl]amino}propyl-4H-3,1-benzoxazin-4-one]	8.69 µM	0.52 µM	> 200 µM
Cc1cccc2nc([C@@H](NC(=O)[C@@H]3CCCN3C(=O)OC(C)(C)C)C(C)C)oc(=O)c12 [Example 2, (1'S)-2-[1'-(N-tert-butyloxycarbonyl-L-prolyl)amino-2'-methyl]propyl-5-methyl-4H-3,1-benzoxazin-4-one]	18.3 µM	2.72 µM	26.5 µM
Cc1cccc2nc([C@@H](NC(=O)[C@@H]3C[C@@H](O)CN3C(=O)OCc3ccccc3)C(C)C)oc(=O)c12 [Example 12, (1'S)-2-[1'-(N-benzyloxycarbonyl-trans-4-hydroxy-L-prolyl)amino-2'-methyl]propyl-5-methyl-4H-3,1-benzoxazin-4-one]	10.7 µM	1.15 µM	> 200 µM
CCCCCC(=O)N1CCC[C@H]1C(=O)N[C@H](c1nc2cccc(C)c2c(=O)o1)C(C)C [Example 5, (1'S)-2-[1'-(N-hexanoyl-L-prolyl)amino-2'-methyl]propyl-5-methyl-4H-3,1-benzoxazin-4-one]	11.3 µM	1.22 µM	> 140 µM
Cc1cccc2nc([C@@H](NC(=O)[C@@H]3CCCN3C(=O)OCc3ccccc3)C(C)C)oc(=O)c12 [Example 1, (1'S)-2-[1'-(N-benzyloxycarbonyl-L-prolyl)amino-2'-methyl]propyl-5-methyl-4H-3,1-benzoxazin-4-one]	2.89 µM	0.28 µM	> 50 µM

Further molecules by falling IC50 [1], results first:

IC50 [1]	IC50 [2]	IC50 [3]	SMILES
22.1 µM	2.98 µM	15 µM	COC(=O)CCC(=O)N[C@@H](C)C(=O)N[C@@H](C)C(=O)N1CCC[C@H]1C(=O)N[C@H](c1nc2cccc(C)c2c(=O)o1)C(C)C [Example 6, (1'S)-2-[1'-(methoxysuccinyl-L-alanyl-L-alanyl-L-prolyl)amino-2'-methyl]propyl-5-methyl-4H-3,1-benzoxazin-4-one]
15.6 µM	1.31 µM	> 200 µM	Cc1cccc2nc([C@@H](NC(=O)[C@@H]3CCCN3C(=O)/C=C/c3ccccc3)C(C)C)oc(=O)c12 [Example 3, (1'S)-2-[1'-(N-cinnamoyl-L-prolyl)amino-2'-methyl]propyl-5-methyl-4H-3,1-benzoxazin-4-one]
4.51 µM	0.99 µM	> 50 µM	CSCC[C@H](NC(=O)[C@@H]1CCCN1C(=O)OCc1ccccc1)c1nc2cccc(C)c2c(=O)o1 [Example 10, (1'S)-2-[1'-(N-benzyloxycarbonyl-L-prolyl)amino-3'-(methylthio)]propyl-5-methyl-4H-3,1-benzoxazin-4-one]

Reference: patent publication US5204462A, “4H-3,1-benzoxazin-4-one derivative” (Japan Tobacco, Inc., priority 1990, dated 1993)
